The results in this text go back to publication PMC9317327, “Functional Characterization, Antimicrobial Effects, and Potential Antibacterial Mechanisms of NpHM4, a Derived Peptide of Nautilus pompilius Hemocyanin” (Marine Drugs, 2022).

Type in all cases: cell-based
Assay [1] relates to Vibrio alginolyticus (A056). The method, then:
(§1) The antimicrobial activity of the peptides was determined against Gram-negative bacteria, including V. alginolyticus (A056), E. coli (DH5α), and V. parahaemolyticus (2013V-1174), which were obtained from the South China Sea Institute of Oceanology, Chinese Academy of Sciences. The activity was also tested against the Gram-positive bacteria S. aureus ATCC 25923 and B. subtilis ATCC 6051. To assess the antimicrobial activities of the peptides, bacterial cells were cultured to the logarithmic growth phase and then diluted to 10^6–1.5 × 10^7 CFU/mL with PBS (0.01 M, pH 7.2). Equal volumes of serially diluted peptides, with concentrations ranging from 30 to 450 μM in PBS, and bacteria suspension were mixed and incubated at room temperature for 2 h, respectively. Then, 6 μL of each serially diluted mixture was plated on sterile 12-well agar plates, followed by incubation for 11 to 12 h, and the colonies were assessed to determine the MICs and MBCs. The MICs were expressed (in µM) as an [a]–[b] concentration interval, where [a] is the highest peptide concentration at which bacteria were growing and [b] is the lowest concentration that caused 100% growth inhibition. Cultures without peptides were employed as controls. All the tests were performed in triplicate and repeated three times.

Assay [2] relates to Vibrio parahaemolyticus 2013V-1174. The following applies: 2 h, pH 7.2. As to the method: as §1
In a further assay the test system is Escherichia coli (DH5α). As to the method: as §1
Assay [3] relates to Bacillus subtilis ATCC 6051. The following applies: ATCC 6051, 2 h, pH 7.2. The method, then:
as §1

Assay [4] relates to Staphylococcus aureus ATCC 25923. The note with it: ATCC 25923, 2 h, pH 7.2. As to the method:
as §1

In brackets after ≈: the same amount, converted by molar mass. Like-named read-outs stand apart in the source and are kept apart here. Where a SMILES comes first, the peptide text is derived from it. Bounds are passed on as bounds.

As for `CC[C@H](C)[C@H](NC(=O)CNC(=O)[C@H](Cc1c[nH]cn1)NC(=O)[C@H](CCCNC(=N)N)NC(=O)[C@H](CC(C)C)NC(=O)[C@H](Cc1ccccc1)NC(=O)CNC(=O)[C@H](C)NC(=O)[C@H](Cc1ccccc1)NC(=O)[C@@H](NC(=O)[C@@H](N)CCCNC(=N)N)C(C)C)C(=O)N[C@@H](CCCCN)C(=O)N[C@@H](CCCNC(=N)N)C(=O)N[C@@H](CO)C(=O)N[C@@H](C)C(=O)O` [NpHM1] (H-RVFAGFLRHGIKRSA-OH), the MBC in assay [1] (2 h, pH 7.2) is over 150 µM; in assay [2], over 60 µM; with Escherichia coli (DH5α) (DH5α, 2 h, pH 7.2), over 60 µM; in assay [3], over 60 µM; in assay [4], over 60 µM. Further, the minimum inhibitory concentration (MIC) in assay [1] (2 h, pH 7.2) is 50 to 150 µM; in assay [2] it was 15 to 60 µM; with Escherichia coli (DH5α) (DH5α, 2 h, pH 7.2), 15 to 60 µM; in assay [3], over 60 µM; in assay [4], over 60 µM.

Regarding `CC[C@H](C)[C@H](NC(=O)CNC(=O)[C@H](Cc1c[nH]cn1)NC(=O)[C@H](CC(C)C)NC(=O)[C@H](CC(C)C)NC(=O)[C@H](Cc1ccccc1)NC(=O)CNC(=O)[C@H](C)NC(=O)[C@H](Cc1ccccc1)NC(=O)[C@@H](NC(=O)[C@@H](N)CCCNC(=N)N)C(C)C)C(=O)N[C@@H](CCCCN)C(=O)N[C@@H](CCCNC(=N)N)C(=O)N[C@@H](CO)C(=O)N[C@@H](CCCNC(=N)N)C(=O)O` [NpHM2] (H-RVFAGFLLHGIKRSR-OH), the MBC is over 75 µM in assay [1] (2 h, pH 7.2) and over 60 µM in assay [2]. Further, the minimum inhibitory concentration (MIC) was 70 to 150 µM in assay [1] (2 h, pH 7.2); 30 to 60 µM in assay [2]; 30 to 60 µM in the assay on Escherichia coli (DH5α) (DH5α, 2 h, pH 7.2).

`CC[C@H](C)[C@H](NC(=O)CNC(=O)[C@H](Cc1c[nH]cn1)NC(=O)[C@H](CC(C)C)NC(=O)[C@H](CC(C)C)NC(=O)[C@H](Cc1ccccc1)NC(=O)CNC(=O)[C@H](C)NC(=O)[C@H](CCCNC(=N)N)NC(=O)[C@@H](NC(=O)[C@@H](N)CCCNC(=N)N)C(C)C)C(=O)N[C@@H](CCCCN)C(=O)N[C@@H](CCCNC(=N)N)C(=O)N[C@@H](CO)C(=O)N[C@@H](C)C(=O)O` [NpHM3] (H-RVRAGFLLHGIKRSA-OH): the MBC in assay [1] (2 h, pH 7.2) was over 150 µM; in assay [2], over 60 µM; with Escherichia coli (DH5α) (DH5α, 2 h, pH 7.2), over 60 µM; in assay [3], over 60 µM; in assay [4], over 60 µM. Also, the minimal inhibitory concentration (MIC) in assay [1] (2 h, pH 7.2) is 30 to 75 µM; in assay [2], 15 to 60 µM; against Escherichia coli (DH5α) (DH5α, 2 h, pH 7.2), 15 to 50 µM; in assay [3], over 60 µM; in assay [4] it was over 60 µM.

Take `CC[C@H](C)[C@H](NC(=O)CNC(=O)[C@H](Cc1c[nH]cn1)NC(=O)[C@H](CC(C)C)NC(=O)[C@H](CC(C)C)NC(=O)[C@H](Cc1ccccc1)NC(=O)CNC(=O)[C@H](C)NC(=O)[C@H](CCCNC(=N)N)NC(=O)[C@@H](NC(=O)[C@@H](N)CCCNC(=N)N)C(C)C)C(=O)N[C@@H](CCCCN)C(=O)N[C@@H](CCCNC(=N)N)C(=O)N[C@@H](CO)C(=O)N[C@@H](CCCNC(=N)N)C(=O)O` [NpHM5] (H-RVRAGFLLHGIKRSR-OH): the minimal bactericidal concentration (MBC) in assay [1] (2 h, pH 7.2) was over 70 µM; in assay [2] it was over 70 µM; with Escherichia coli (DH5α) (DH5α, 2 h, pH 7.2), over 50 µM; in assay [3] it was over 50 µM; in assay [4], over 50 µM. Moreover, the MIC in assay [1] (2 h, pH 7.2) was 15 to 70 µM; in assay [2] it was 15 to 70 µM; with Escherichia coli (DH5α) (DH5α, 2 h, pH 7.2), over 50 µM; in assay [3], over 50 µM; in assay [4], over 50 µM.

As for `CC[C@H](C)[C@H](NC(=O)CNC(=O)[C@H](Cc1c[nH]cn1)NC(=O)[C@H](CCCNC(=N)N)NC(=O)[C@H](CC(C)C)NC(=O)[C@H](Cc1ccccc1)NC(=O)CNC(=O)[C@H](C)NC(=O)[C@H](CCCNC(=N)N)NC(=O)[C@@H](NC(=O)[C@@H](N)CCCNC(=N)N)C(C)C)C(=O)N[C@@H](CCCCN)C(=O)N[C@@H](CCCNC(=N)N)C(=O)N[C@@H](CO)C(=O)N[C@@H](C)C(=O)O` [NpHM6] (H-RVRAGFLRHGIKRSA-OH), the MBC is over 70 µM in assay [1] (2 h, pH 7.2); over 60 µM in assay [2]; over 50 µM against Escherichia coli (DH5α) (DH5α, 2 h, pH 7.2); over 50 µM in assay [3]; over 50 µM in assay [4]. For the same compound, the MIC was over 70 µM in assay [1] (2 h, pH 7.2); 15 to 60 µM in assay [2]; over 50 µM against Escherichia coli (DH5α) (DH5α, 2 h, pH 7.2); over 50 µM in assay [3]; over 50 µM in assay [4].

For the compound `CSCC[C@H](NC(=O)[C@H](Cc1ccccc1)NC(=O)CNC(=O)[C@H](C)NC(=O)[C@H](Cc1ccccc1)NC(=O)[C@@H](N)C(C)C)C(=O)N[C@@H](CC(C)C)C(=O)N[C@@H](Cc1c[nH]cn1)C(=O)NCC(=O)N[C@@H](Cc1ccccc1)C(=O)N[C@@H](CCCCN)C(=O)N[C@@H](CCCCN)C(=O)N[C@@H](CO)C(=O)N[C@@H](C)C(=O)N[C@@H](CC(C)C)C(=O)N[C@H](C(=O)O)C(C)C` [NpHN1] (H-VFAGFMLHGFKKSALV-OH), in assay [1] (2 h, pH 7.2), the MBC was over 260 µM and the minimum inhibitory concentration (MIC) lay within 50 to 260 µM. In the assay with Escherichia coli (DH5α) (DH5α, 2 h, pH 7.2), the MBC was over 450 µM and the minimum inhibitory concentration (MIC) fell in the range of 250 to 450 µM.

On to `CC[C@H](C)[C@H](NC(=O)CNC(=O)[C@H](CO)NC(=O)[C@H](CC(C)C)NC(=O)[C@H](CCCNC(=N)N)NC(=O)[C@H](Cc1ccccc1)NC(=O)[C@H](CO)NC(=O)[C@H](C)NC(=O)[C@@H](N)Cc1ccccc1)C(=O)N[C@@H](Cc1c[nH]cn1)C(=O)N[C@H](C(=O)N[C@@H](CO)C(=O)N[C@@H](C)C(=O)N[C@@H](CC(N)=O)C(=O)N[C@H](C(=O)N[C@@H](CCCCN)C(=O)N[C@H](C(=O)N[C@@H](CC(C)C)C(=O)O)C(C)C)C(C)C)[C@@H](C)O` [NpHN2] (H-FASFRLSGIHTSANVKVL-OH), for which, in assay [1] (2 h, pH 7.2), the MBC is over 280 µM and the MIC was in the range of 100 to 280 µM. In addition, in the assay with Escherichia coli (DH5α) (DH5α, 2 h, pH 7.2), the minimal bactericidal concentration (MBC) is over 500 µM and the MIC lay in the range of 200 to 500 µM.

`CC[C@H](C)[C@H](NC(=O)[C@H](CS)NC(=O)[C@H](CS)NC(=O)[C@H](C)NC(=O)[C@H](Cc1ccc(O)cc1)NC(=O)[C@H](CCCNC(=N)N)NC(=O)[C@H](Cc1c[nH]cn1)NC(=O)[C@H](CC(C)C)NC(=O)[C@H](C)NC(=O)[C@@H](N)CCCCN)C(=O)N[C@@H](Cc1c[nH]cn1)C(=O)NCC(=O)N[C@@H](CCSC)C(=O)N[C@@H](C)C(=O)N[C@H](C(=O)O)[C@@H](C)O` [NpHN3] (H-KALHRYACCIHGMAT-OH): the minimum bactericidal concentration (MBC) in assay [1] (2 h, pH 7.2) was over 250 µM; with Escherichia coli (DH5α) (DH5α, 2 h, pH 7.2), over 450 µM. In addition, the minimal inhibitory concentration (MIC) lay in the range of 50 to 250 µM in assay [1] (2 h, pH 7.2) and 250 to 450 µM in the assay with Escherichia coli (DH5α) (DH5α, 2 h, pH 7.2).

Consider `CC[C@H](C)[C@H](NC(=O)[C@H](CCCNC(=N)N)NC(=O)[C@@H](NC(=O)[C@H](CC(N)=O)NC(=O)[C@H](C)NC(=O)[C@H](CO)NC(=O)[C@H](C)NC(=O)[C@H](CCC(N)=O)NC(=O)[C@@H](NC(=O)CNC(=O)[C@H](Cc1c[nH]cn1)NC(=O)[C@H](CC(C)C)NC(=O)[C@H](CC(C)C)NC(=O)[C@H](Cc1ccccc1)NC(=O)CN)[C@@H](C)CC)C(C)C)C(=O)O` [NpHN4] (H-GFLLHGIQASANVRI-OH), for which, in assay [1] (2 h, pH 7.2), the minimal bactericidal concentration (MBC) is over 300 µM and the MIC lay within 100 to 300 µM. In the assay on Escherichia coli (DH5α) (DH5α, 2 h, pH 7.2), this compound gave an MBC of over 600 µM and an MIC of 200 to 600 µM.

As to `CC[C@H](C)[C@H](NC(=O)CNC(=O)[C@H](Cc1c[nH]cn1)NC(=O)[C@H](CC(C)C)NC(=O)[C@H](CC(C)C)NC(=O)[C@H](Cc1ccccc1)NC(=O)CNC(=O)[C@H](C)NC(=O)[C@H](Cc1ccccc1)NC(=O)[C@@H](NC(=O)[C@@H](N)CCCNC(=N)N)C(C)C)C(=O)N[C@@H](CCCCN)C(=O)N[C@@H](CCCNC(=N)N)C(=O)N[C@@H](CO)C(=O)N[C@@H](C)C(=O)O` [NpHN5] (H-RVFAGFLLHGIKRSA-OH), the minimal inhibitory concentration (MIC) in assay [1] (V. alginolyticus A056, 2 h in PBS pH 7.2 at room temperature, plated 11 to 12 h, interval [a]–[b]: [a] highest concentration with growth, [b] lowest with 100% growth inhibition, triplicate, repeated three times) was 50 to 250 µM; with Escherichia coli (DH5α) (E. coli DH5α, peptide mixed with bacteria (10^6–1.5 × 10^7 CFU/mL) in PBS 0.01 M pH 7.2, 2 h room temperature, plated on agar 11 to 12 h, interval [a]–[b]: [a] highest concentration with growth, [b] lowest with 100% growth inhibition, triplicate, repeated three times), 200 to 450 µM. Besides, the MBC in assay [1] (V. alginolyticus A056, 2 h in PBS pH 7.2 at room temperature, plated 11 to 12 h, triplicate, repeated three times) was 250 µM (≈ 418 µg/mL); in the assay on Escherichia coli (DH5α) (E. coli DH5α, 2 h in PBS pH 7.2 at room temperature, plated 11 to 12 h, triplicate, repeated three times), 450 µM (≈ 752 µg/mL).

Turning to `CC[C@H](C)[C@H](NC(=O)CNC(=O)[C@H](Cc1c[nH]cn1)NC(=O)[C@H](CC(C)C)NC(=O)[C@H](CC(C)C)NC(=O)[C@H](Cc1ccccc1)NC(=O)CNC(=O)[C@H](C)NC(=O)[C@H](Cc1ccccc1)NC(=O)[C@@H](NC(=O)[C@@H](N)CCCNC(=N)N)[C@@H](C)CC)C(=O)NCC(=O)N[C@@H](CCC(N)=O)C(=O)N[C@@H](CO)C(=O)N[C@@H](C)C(=O)O` [NpHN6] (H-RIFAGFLLHGIGQSA-OH), the MIC in assay [1] (2 h, pH 7.2) was 100 to 300 µM; in the assay on Escherichia coli (DH5α) (DH5α, 2 h, pH 7.2), 250 to 500 µM. For the same compound, the MBC against Escherichia coli (DH5α) (DH5α, 2 h, pH 7.2) is over 500 µM.
